Results as given in US11179361B2, “Methods of quantifying N2-(1-carboxyethyl)-2′-deoxy-guanosine (CEdG) and synthesis of oligonucleotides containing CEdG” (CITY OF HOPE, priority 2008, dated 2021).

Experiments:
[1] = physchem; conditions: buffer, pH 2.4, half-life for depurination
Experimental: (§2) A 1.25 mM solution of CEdG-A, B or dG in 100 μL of 1M AcOH (pH 2.4) was stirred at 37° C. Aliquots (10 μl) were removed periodically and added to 40 μL of 2M TEAA (pH 7.0). HPLC product analyses were performed using an Alltech HS HyperPrep 100 BDS C18 8μ column. A gradient of 0 to 4% CH3CN over 5 min was followed by 6.5% CH3CN over 30 min. TEAA (pH 7) was kept constant at 50 mM. The ratio of free base (CEGuanine or Guanine) to intact nucleoside (CEdG or dG) was calculated by integration of the corresponding HPLC peaks (see inset in FIG. 4).
(§3) Purified stereoisomers of synthetic CEdG were subjected to acidic conditions (1 M AcOH at 37° C.) and the extent of released free base and diastereomer interconversion was monitored by HPLC as a function of time.

[2] = Stability of CEdG to acid-catalyzed depurination and sidechain isomerization; conditions: 37° C.; for racemization of the sidechain stereocenter / interconversion of isomers: acidic hydrolysis, 1 M AcOH
Experimental: as §2, §3

[3] = tested on: calf thymus DNA; test: Artifactual CEdG formation during DNA workup with carbonyl scavenger (calf thymus DNA)
Experimental: (§1) Calf thymus or tissue-extracted DNA (100 μg) was dissolved in 80 μL of autoclaved 18.2 MΩ H2O containing 20 μL of sodium acetate (100 mM, pH 5.5), 20 μL of 1×TBE, 1.5 μL of 50 mM ZnCl2, and 2.37 μL of a 100 mM AG or D-P stock solution. DNA was denatured at 95° C. for 5 min on a PCR heating block and then brought to 4° C. for 5 min. After equilibration to 45° C., 1.5 μL of 10 U/μL nuclease P1 was added. Alkaline phosphatase (4 μL of 8 U/μL), 1 U of bovine phosphodiesterase, and 14 μL of 100 mM CaCl2 were added after 1 hour, and the hydrolysis/dephosphorylation was continued for another 7 hours. DNA concentrations were determined by UV spectroscopy (1 OD260=50 μg/ml) and samples were stored at −80° C. prior to MS analyses. A 5 μL aliquot of digest was diluted to 200 μL and used for quantitation of 2′-deoxyguanosine by HPLC integration using a Beckman C18 reverse phase (25 cm×4.6 mm) column (Fullerton, Calif.). Separation was achieved isocratically using a mobile phase of 6% MeOH, 0.1% acetic acid in water.
Commercial grade calf thymus DNA was used as a model substrate for developing a protocol for CEdG quantitation in double-stranded DNA. […] Concentrations of AG from 0.5 to 50 mM were added prior to workup, and CEdG levels were measured in order to determine the optimal concentration required to achieve stable, reproducible levels. […]

[4] = tested on: urinary CEdG; test: Urinary CEdG measurement in type 1 (streptozoticin) diabetic rats given LR-90; assay type: in vivo, Sprague-Dawley rats
Experimental: All animal studies were carried out in compliance with the policies outlined in NIH Publication No. 85-23 “Guide for the Care and Use of Laboratory Animals.” Male Sprague-Dawley rats were rendered diabetic by injection of streptozoticin and maintained as previously described.^18 AGE inhibitor LR-90 was administered ad libitum at concentrations ranging from 2.5-50 mg/L. Rats were housed in metabolic cages and urine was collected over a 24 hour period with several drops of toluene to inhibit microbial growth. Urine samples were stored at −80° C. prior to LC-MS/MS analysis for CEdG. The data in FIG. 5 represent 3 replicates from n different animals: non-diabetic controls, n=6; non-diabetic treated with 50 mg/L LR-90, n=5; diabetic control, n=3. For diabetic rats treated with varying doses of LR-90: 2.5 mg/L, n=4; 10 mg/L, n=5; 25 mg/L, n=6; 50 mg/L, n=8.
CEdG was concentrated from urine by solid phase extraction. A 1 ml strata-X-C cartridge was pre-conditioned by the sequential addition of 1 ml MeOH/CH3CN (1:1) followed by 2×1 ml 2% H3PO4. Then ^15N5-CEdG was added as an internal standard (final concentration 5 μg/ml), the sample was acidified with 10 μl of 86% H3PO4, and finally 0.4 mL of urine was introduced via suction filtration. The cartridge was then washed with sequential additions of 1 ml 0.1% H3PO4 and 1 ml MeOH and then dried under vacuum for 1 minute. Finally, CEdG/^15N5-CEdG containing fractions were eluted from the cartridge with 1 mL 3% NH4OH in MeOH:CH3CN (2:8 v/v). The eluent was evaporated to dryness in a centrifugal concentrator and reconstituted with 200 μl 0.1% formic acid prior to LC-MS/MS injection.
CEdG quantification was performed using LC-MS/MS. Measurement of 8-oxo-dG was performed as previously described.^19 CEdG and ^15N5-CEdG (internal standard) were synthesized and purified. Measurements were performed using an Agilent 1100 Capillary LC system (Agilent Technologies, Palo Alto, Calif.) in line with a Micromass Quattro Ultima Triple Quadrupole Mass Spectrometer (Micromass, Beverly, Mass.) operating in positive-ion mode. […] The mass transitions monitored for CEdG and ^15N5-CEdG were 340.3→224.3 and 345.4→229.4 respectively. […] The lower limit of quantitation for CEdG, defined as a peak height of ≥5× baseline noise, was 0.1 ng/ml in the starting solution or 0.2 pg on column.
A diabetic animal model was used to examine the relationship between glycemic status and CEdG levels. […] 8-oxo-dG was also measured as an indicator of oxidative stress in normal and diabetic rats; however, excreted 8-oxo-dG in diabetic animals was not statistically different (P>0.05) from controls.

[5] = tested on: CEdG levels from tissue-extracted DNA; test: CEdG in tissue-extracted DNA from organs of Zucker fatty rats; assay type: in vivo, Zucker rat; conditions: liver, pancreas and kidney, after LR-90 treatment
Experimental: as §1, with “Separation was achieved isocratically using a mobile phase of 6% MeOH, 0.1% acetic acid in water.” left out
The Zucker rat is a morbidly obese, hyperinsulinemic model for Type 2 diabetes resulting from homozygous knockout of the leptin receptor. In order to determine whether elevated circulating glucose in the Zucker rat correlates with increased tissue DNA glycation, CEdG levels from tissue-extracted DNA were measured in selected organs and compared to lean controls and to Zucker rats treated with the glycation inhibitor LR-90. […]

[6] = tested on: DNA extracted from breast tumor or adjacent tissue; test: Artifactual CEdG formation during DNA isolation from human breast tumor and adjacent tissue with carbonyl scavenger; conditions: 10 mM D-penicillamine in two aliquots during cell lysis/DNA isolation and hydrolysis/dephosphorylation
Experimental: Breast tumor and adjacent normal tissue were obtained from the frozen tumor bank of the City of Hope Pathology Core. A pea-sized section (˜100 mg) of tissue was minced and suspended in 1.2 mL of digestion buffer (100 mM NaCl, 10 mM Tris HCl, pH 8, 25 mM EDTA, pH 8, 0.5% SDS, 0.2 mg/mL proteinase K, 10 mM D-penicillamine) and incubated at 50° C. in a water bath for 12-18 h. DNA was then extracted using an equivalent volume of phenol/chloroform/isoamyl alcohol (25:24:1). The aqueous fraction was separated and 0.5 volumes of ammonium acetate and 2 volumes of 100% ethanol were added. The DNA was spooled, washed twice with 70% ethanol, pelleted, and resuspended in autoclaved 18.2 MΩ water. The enzymatic hydrolysis was carried out as described above.

Work on `Nc1nc2c(ncn2[C@H]2C[C@H](O)[C@@H](CO)O2)c(=O)[nH]1` [dG, 2′-deoxyguanosine] yielded a half-life at 1.25 mM [1] of 7.33 h.

With `CC(Nc1nc2c(ncn2[C@H]2C[C@H](O)[C@@H](CO)O2)c(=O)[nH]1)C(=O)O` (single isomer, unassigned) [CEdG-B, N^2-(1-carboxyethyl)-2′-deoxyguanosine] the half-life for depurination ([2]; 1 M AcOH (pH 2.4), HPLC) was roughly 8.33 h and the “racemization of the sidechain stereocenter / interconversion of isomers” value [2] was “no interconversion”.

In the case of `N=C(N)NN` [AG, aminoguanidine], the “measured CEdG levels after mock proteolysis and hydrolysis with scavenger” value ([3]; 10 mM AG in two aliquots prior to mock lysis and hydrolysis/dephosphorylation, 80-100 CEdG/10^6 guanines without scavenger) was “drop in measured CEdG levels” and the “adduct levels after scavenger addition prior to sample processing” value ([3]; 10 mM AG, hydrolysis/dephosphorylation only, 60-66 CEdG/10^6 dG without scavenger) was 45-50 CEdG/10^6 guanines.

With `CC(Nc1nc2c(ncn2[C@H]2C[C@H](O)[C@@H](CO)O2)c(=O)[nH]1)C(=O)O` (single isomer, unassigned) [CEdG-A, N^2-(1-carboxyethyl)-2′-deoxyguanosine] the half-life at 1.25 mM ([2]; 1 M acetic acid solution, pH 2.4, half-life for depurination, 1 M AcOH (pH 2.4), HPLC) was roughly 12.5 h and the “racemization of the sidechain stereocenter / interconversion of isomers” value [2] was “no interconversion”.

For `CC(C)(Oc1ccc(NC(=O)Nc2ccc(Cc3ccc(NC(=O)Nc4ccc(OC(C)(C)C(=O)O)cc4)c(Cl)c3)cc2Cl)cc1)C(=O)O` [LR-90], the “adduct level in urine” value ([4]; diabetic rats, LR-90 25 mg/L) was “comparable to that of non-diabetic animals”, the “decrease in CEdG titer” value ([4]; diabetic rats, LR-90 ad libitum 2.5 mg/L, 24 hr urine) was 2.3 fold and the “reduction in CEdG with increasing concentrations” value ([4]; diabetic rats, LR-90 ad libitum 2.5-50 mg/L, urine) was “dose dependent reduction in CEdG”. The “effect on CEdG levels in normal controls” value ([4]; non-diabetic rats, LR-90 at doses up to 50 mg/L) was “no significant effect” and the “change of CEdG levels in tissue DNA” value [5] was “net lowering of CEdG levels”.

With `CC(C)(S)[C@@H](N)C(=O)O` [D-penicillamine] the “artifactual CEdG formation” value [6] was “artifactual formation was inhibited”.
